In the METLIN SMRT retention time set (Domingo-Almenara et al. 2019):

Assay: gradient 5% acetonitrile 3 min, to 50% in 2 min, to 85% in 15 min, held 3 min, 100 µL/min
Conditions: column: Zorbax Extend-C18 2.1 x 50 mm; eluents: water / acetonitrile, 0.1% formic acid
Summary of the method: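 Data were gathered over 3 months by HPLC coupled to a quadrupole time-of-flight mass spectrometer, operated in positive and negative ionization mode. Mixtures of ~100 pure standards ran on a Zorbax Extend-C18 column (2.1 × 50 mm, 1.8 μm) at 100 μL/min, with water and acetonitrile each containing 0.1% formic acid and dead and dwell volumes of 40 μL and 900 μL. Retention time was read from adduct peaks picked by computer and checked manually.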

Q: Which RP-LC retention time does the source give for `CCc1noc(-c2cc(=O)n(CC(=O)Nc3ccccc3OC)c3ccccc23)n1` here?
A: The RP-LC retention time was 962 s.

Q: Which RP-LC retention time does the source give for `CCn1c(=O)sc2cc(S(=O)(=O)N3CCC(C(=O)Nc4cccc(SC)c4)CC3)ccc21` here?
A: The RP-LC retention time was 975 s.

Q: With `CN(Cc1ccco1)C(=O)c1ccc(-n2cc(CNC(=O)C3CC3)cn2)cc1` as the molecule, how does the RP-LC retention time read?
A: Its RP-LC retention time is 676 s.

Q: Which RP-LC retention time does the source give for `Cc1ccc(-c2cn3cc(C(=O)N4CCCN(C)CC4)ccc3n2)cc1C` here?
A: The RP-LC retention time was 583 s.

Q: Which RP-LC retention time does the source give for `Cc1ccc(N2N=NC3C(=O)N(c4ccccc4)C(=O)C32)cc1F` (stereo unspecified) here?
A: The RP-LC retention time was 1010 s.

Q: Which RP-LC retention time does the source give for `CN(C)S(=O)(=O)c1ccc(C(=O)Nc2sc(-c3ccccc3)cc2C(N)=O)cc1` here?
A: Its RP-LC retention time is 925 s.

Q: For `CC(NC(=O)c1ccccc1)c1nc(-c2ccc3nnn(C)c3c2)no1` (stereo unspecified), which RP-LC retention time is on record?
A: Its RP-LC retention time is 641 s.

Q: With `COc1ccc2c(c1)C1(CCN(C(=O)Nc3ccc(OC)c(OC)c3)C1)C(=O)N2` (stereo unspecified) as the molecule, how does the RP-LC retention time read?
A: Its RP-LC retention time is 671 s.

Q: Which RP-LC retention time does the source give for `CCCN(Cc1ccc(OC)cc1)Cc1cc(=O)n2ccc(C)cc2n1` here?
A: The RP-LC retention time was 628 s.

Q: Which RP-LC retention time does the source give for `COc1ccc(OC)c(NC(=O)Cn2cnc3nc4c(cc3c2=O)CCCC4)c1` here?
A: Its RP-LC retention time is 676 s.

Q: With `Cc1c(C(=O)NC2CCCCC2)sc2ncn(CC(=O)N3CC(C)CC(C)C3)c(=O)c12` (stereo unspecified) as the molecule, how does the RP-LC retention time read?
A: Its RP-LC retention time is 965 s.

Q: For `Cn1cc2c3c(cccc31)CN(C(=O)c1ccc(F)cc1Cl)CC2`, which RP-LC retention time is on record?
A: The RP-LC retention time was 958 s.

Q: With `NC(=O)C1CCN(C2CC(=O)N(c3ccc(Cl)c(Cl)c3)C2=O)CC1` (stereo unspecified) as the molecule, how does the RP-LC retention time read?
A: The RP-LC retention time was 611 s.

Q: With `COc1ccc(NC(=O)Nc2cc(-c3cn4cccnc4n3)ccc2C)cc1` as the molecule, how does the RP-LC retention time read?
A: The RP-LC retention time was 590 s.

Q: With `O=S(=O)(NCC1(O)CCOCC1)c1ccc2c(c1)CCCC2` as the molecule, how does the RP-LC retention time read?
A: The RP-LC retention time was 688 s.

Q: With `CC(C)Cc1cc(-c2nn3c(-c4cccc(Cl)c4)nnc3s2)n[nH]1` as the molecule, how does the RP-LC retention time read?
A: Its RP-LC retention time is 1080 s.

Q: For `O=C(c1ccccc1)N1CCCCC1c1nncn1CC1CC1` (stereo unspecified), which RP-LC retention time is on record?
A: Its RP-LC retention time is 592 s.

Q: With `CCC(=O)NCc1nc2c(n1C)CN(S(=O)(=O)c1cc(F)ccc1F)CC2` as the molecule, how does the RP-LC retention time read?
A: The RP-LC retention time was 557 s.

Q: Which RP-LC retention time does the source give for `NC(=O)Cn1c(Cc2ccccc2)nc2ccccc21` here?
A: The RP-LC retention time was 522 s.

Q: With `CC(C)CN1CCN(C(=O)C2CC(=O)N(CCc3ccccc3)C2)CC1` (stereo unspecified) as the molecule, how does the RP-LC retention time read?
A: The RP-LC retention time was 580 s.

Q: With `CN1C(=O)C2CCCCN2c2ccc(C(=O)N3CCN(c4ccc(Cl)cc4)CC3)cc21` (stereo unspecified) as the molecule, how does the RP-LC retention time read?
A: Its RP-LC retention time is 1020 s.

Q: With `COc1ccc(N2C=C(C(=O)N3CCCC3)S(=O)(=O)c3ccc(F)cc32)cc1OC` as the molecule, how does the RP-LC retention time read?
A: The RP-LC retention time was 758 s.

Q: For `Cc1cc(C)c(C(=O)N2CCCC(C(=O)NCc3ccccc3Cl)C2)[nH]1` (stereo unspecified), which RP-LC retention time is on record?
A: The RP-LC retention time was 834 s.

Q: With `COc1ccccc1-c1nc(Cn2nnc(-c3nc(-c4ccc(OC(C)C)cc4)no3)c2C)c(C)o1` as the molecule, how does the RP-LC retention time read?
A: Its RP-LC retention time is 1230 s.

Q: Which RP-LC retention time does the source give for `Cc1ccc2c(=O)c(C(=O)N3CCCC3)cn(CC(=O)Nc3ccc(C)c(C)c3)c2n1` here?
A: The RP-LC retention time was 733 s.

Q: For `COc1nc2ccccc2nc1N1CCCC(C(=O)N2CCN(c3ccccc3F)CC2)C1` (stereo unspecified), which RP-LC retention time is on record?
A: Its RP-LC retention time is 1240 s.

Q: For `CCC(C)NC(=O)c1nc2cc(C)c(C)cc2n(C)c1=O` (stereo unspecified), which RP-LC retention time is on record?
A: Its RP-LC retention time is 798 s.

Q: Which RP-LC retention time does the source give for `CCc1nc2cc(-c3noc(-c4ccc5cc[nH]c5c4)n3)ccc2o1` here?
A: The RP-LC retention time was 1110 s.

Q: For `CCc1ccc(S(=O)(=O)N2CCc3nc(-c4ccc(F)cc4)ncc3C2)cc1`, which RP-LC retention time is on record?
A: Its RP-LC retention time is 1190 s.

Q: With `O=C(Nc1cccn2c(C3CCC3)nnc12)c1ccc(Cl)s1` as the molecule, how does the RP-LC retention time read?
A: The RP-LC retention time was 871 s.

Q: For `COc1cccc(CNC(=O)C2CCN(S(=O)(=O)c3cn(C)cn3)CC2)c1`, which RP-LC retention time is on record?
A: The RP-LC retention time was 656 s.

Q: For `CCOC(=O)C1CCCN(C(=O)c2cn(-c3cc(N4CCSCC4)ncn3)cn2)C1` (stereo unspecified), which RP-LC retention time is on record?
A: The RP-LC retention time was 802 s.

Q: For `COc1ccc(Cl)cc1NC(=O)c1cccn1-c1cccnc1`, which RP-LC retention time is on record?
A: Its RP-LC retention time is 887 s.

Q: For `CCc1nc(OCC(=O)NCCOC)c2c(-c3ccc(F)cc3)noc2n1`, which RP-LC retention time is on record?
A: Its RP-LC retention time is 845 s.

Q: Which RP-LC retention time does the source give for `CN(CCc1noc(C2CN(Cc3c(F)cccc3Cl)C2)n1)S(C)(=O)=O` here?
A: The RP-LC retention time was 594 s.

Q: For `CCOc1ncccc1C(=O)N1CCN(c2ccc(-c3ccc(OC)c(OC)c3)nn2)CC1`, which RP-LC retention time is on record?
A: Its RP-LC retention time is 606 s.
